Our source for the IC50 values is patent US12662491B2 (Redona Therapeutics, Inc., priority 2020, dated 2026).

Bounds are passed on as bounds.

The target in the experiment is T1, Zcchc11 enzyme (Homo sapiens, UniProt Q5TAX3).
T1 construct: made in house; host or cells: HEK293 cells (Zcchc11); E. coli Rosetta II (LIN28A)
T1 sequence (Q5TAX3 212-1420): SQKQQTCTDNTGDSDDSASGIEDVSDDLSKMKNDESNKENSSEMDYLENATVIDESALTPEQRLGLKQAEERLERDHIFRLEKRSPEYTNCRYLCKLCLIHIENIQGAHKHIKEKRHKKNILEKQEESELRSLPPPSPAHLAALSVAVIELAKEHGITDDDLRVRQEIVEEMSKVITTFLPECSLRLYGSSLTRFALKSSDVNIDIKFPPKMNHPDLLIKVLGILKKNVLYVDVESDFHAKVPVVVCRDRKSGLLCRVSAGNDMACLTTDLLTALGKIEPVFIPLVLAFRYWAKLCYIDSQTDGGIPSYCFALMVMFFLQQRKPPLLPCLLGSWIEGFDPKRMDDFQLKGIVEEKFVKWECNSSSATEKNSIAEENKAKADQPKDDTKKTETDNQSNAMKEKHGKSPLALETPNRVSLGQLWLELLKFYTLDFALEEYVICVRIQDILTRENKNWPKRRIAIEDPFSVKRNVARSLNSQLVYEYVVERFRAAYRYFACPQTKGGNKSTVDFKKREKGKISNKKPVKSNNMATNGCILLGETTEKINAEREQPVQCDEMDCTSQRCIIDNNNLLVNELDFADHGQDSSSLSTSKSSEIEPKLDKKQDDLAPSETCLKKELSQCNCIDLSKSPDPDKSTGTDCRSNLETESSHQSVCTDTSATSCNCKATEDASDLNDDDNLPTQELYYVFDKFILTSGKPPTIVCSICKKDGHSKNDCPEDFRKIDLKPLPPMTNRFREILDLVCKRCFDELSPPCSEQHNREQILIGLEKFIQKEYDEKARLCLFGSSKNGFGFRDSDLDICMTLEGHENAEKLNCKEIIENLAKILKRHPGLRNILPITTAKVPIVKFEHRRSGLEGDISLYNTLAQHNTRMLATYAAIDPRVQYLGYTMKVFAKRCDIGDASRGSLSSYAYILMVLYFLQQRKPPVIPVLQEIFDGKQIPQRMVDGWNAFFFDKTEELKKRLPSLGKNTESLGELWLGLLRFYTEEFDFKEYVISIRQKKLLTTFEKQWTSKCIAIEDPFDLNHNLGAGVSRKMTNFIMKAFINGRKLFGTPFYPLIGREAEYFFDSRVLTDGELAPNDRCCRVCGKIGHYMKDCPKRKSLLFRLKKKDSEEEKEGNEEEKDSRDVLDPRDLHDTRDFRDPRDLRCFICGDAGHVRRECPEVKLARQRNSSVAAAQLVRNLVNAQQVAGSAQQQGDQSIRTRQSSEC
As to the kind of experiment: TUTase assay (Zcchc11 assay, Lin28a-dependent polyuridylation of pre-let-7). The experiment is classed as biochemical. The note with it: Lin28a-dependent Zcchc11 (Z11) TUTase assay; read-out: Potency Lin28a-dep Z11 IC50. An outline of the steps: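 Human Zcchc11 residues 212-1420 (HEK293-expressed, MBP tag cleaved, C-terminal FLAG) at 0.2 nM, with 10 nM full-length human LIN28A and 2 nM 5′-fluorescein pre-let-7, preincubated with compound 30 min at room temperature. Reaction started with 5 uM UTP plus 4 nM 3′-rhodamine A20 quench probe; fluorescein loss read kinetically, IC50 from initial rates.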

What is called IC50 is the concentration at which inhibition is half-maximal. On to `O=C(O)c1cn(Cc2ccccn2)c2cc(N3CCC[C@@H]3COc3ncccc3Cl)c(Cl)cc2c1=O` [Example 576, (R)-6-chloro-7-(2-(((3-chloropyridin-2-yl)oxy)methyl)pyrrolidin-1-yl)-4-oxo-1-(pyridin-2-ylmethyl)-1,4-dihydroquinoline-3-carboxylic acid], for which the half-inhibitory concentration (IC50) is at most 1000 nM.

`O=C(O)c1cn(Cc2ccncc2)c2cc(N3CCC[C@@H]3COc3ncccc3Cl)c(Cl)cc2c1=O` [Example 577, (R)-6-chloro-7-(2-(((3-chloropyridin-2-yl)oxy)methyl)pyrrolidin-1-yl)-4-oxo-1-(pyridin-4-ylmethyl)-1,4-dihydroquinoline-3-carboxylic acid]: the IC50 lay within 1000 to 10000 nM.

Regarding `CN(C)C1CN(c2ccc(-n3cc(C(=O)O)c(=O)c4cc(Cl)c(N5CCC[C@@H]5CCc5ccccn5)cc43)cn2)C1` [Example 578, (R)-6-chloro-1-(6-(3-(dimethylamino)azetidin-1-yl)pyridin-3-yl)-4-oxo-7-(2-(2-(pyridin-2-yl)ethyl)pyrrolidin-1-yl)-1,4-dihydroquinoline-3-carboxylic acid], the IC50 lay in the range of 1000 to 10000 nM.

On to `CN(C)C1CN(c2ccc(-n3cc(C(=O)O)c(=O)c4cc(Cl)c(N5CCC[C@@H]5COc5ccnn5C)cc43)cn2)C1` [Example 580, (R)-6-chloro-1-(6-(3-(dimethylamino)azetidin-1-yl)pyridin-3-yl)-7-(2-(((1-methyl-1H-pyrazol-5-yl)oxy)methyl)pyrrolidin-1-yl)-4-oxo-1,4-dihydroquinoline-3-carboxylic acid], for which the IC50 was at most 1000 nM.

For the compound `O=C(O)c1cn(Cc2cn[nH]c2)c2cc(N3CCC[C@@H]3COc3ncccc3Cl)c(Cl)cc2c1=O` [Example 581, (R)-1-((1H-pyrazol-4-yl)methyl)-6-chloro-7-(2-(((3-chloropyridin-2-yl)oxy)methyl)pyrrolidin-1-yl)-4-oxo-1,4-dihydroquinoline-3-carboxylic acid], the IC50 lay in the range of 1000 to 10000 nM.

For `CN(C)CCn1cc(Cn2cc(C(=O)O)c(=O)c3cc(Cl)c(N4CCC[C@@H]4COc4ncccc4Cl)cc32)cn1` [Example 582, (R)-6-chloro-7-(2-(((3-chloropyridin-2-yl)oxy)methyl)pyrrolidin-1-yl)-1-((1-(2-(dimethylamino)ethyl)-1H-pyrazol-4-yl)methyl)-4-oxo-1,4-dihydroquinoline-3-carboxylic acid], the IC50 was 1000 to 10000 nM.

On to `CC(c1ccccc1)n1cc(C(=O)O)c(=O)c2cc(Cl)c(N3CCC[C@@H]3COc3ncccc3Cl)cc21` (stereo partly drawn) [Example 583, 6-chloro-7-((R)-2-(((3-chloropyridin-2-yl)oxy)methyl)pyrrolidin-1-yl)-4-oxo-1-(1-phentylethyl)-1,4-dihydroquinoline-3-carboxylic acid], for which the half-maximal inhibitory concentration (IC50) fell in the range of 1000 to 10000 nM.

Consider `Cc1nc(N2CC(N(C)C)C2)ccc1-n1cc(C(=O)O)c(=O)c2cc(Cl)c(N3CCC[C@@H]3COc3ncccc3Cl)cc21` [Example 584, (R)-6-chloro-7-(2-(((3-chloropyridin-2-yl)oxy)methyl)pyrrolidin-1-yl)-1-(6-(3-(dimethylamino)azetidin-1-yl)-2-methylpyridin-3-yl)-4-oxo-1,4-dihydroquinoline-3-carboxylic acid], for which the IC50 was at most 1000 nM.

`Nc1ccc(Cn2cc(C(=O)O)c(=O)c3cc(Cl)c(N4CCC[C@@H]4COc4ncccc4Cl)cc32)cn1` [Example 585, (R)-1-((6-aminopyridin-3-yl)methyl)-6-chloro-7-(2-(((3-chloropyridin-2-yl)oxy)methyl)pyrrolidin-1-yl)-4-oxo-1,4-dihydroquinoline-3-carboxylic acid]: the IC50 is 1000 to 10000 nM.

Regarding `Nc1cc(F)c(-n2cc(C(=O)O)c(=O)c3cc(Cl)c(N4CCC[C@@H]4COc4ncccc4Cl)cc32)cn1` [Example 586, (R)-1-(6-amino-4-fluoropyridin-3-yl)-6-chloro-7-(2-(((3-chloropyridin-2-yl)oxy)methyl)pyrrolidin-1-yl)-4-oxo-1,4-dihydroquinoline-3-carboxylic acid], the IC50 is at most 1000 nM.

In the case of `CN(C)C1CN(c2ccc(-n3cc(C(=O)O)c(=O)c4cc(Cl)c(N5CCC[C@@H]5COc5ncco5)cc43)cn2)C1` [Example 587, (R)-6-chloro-1-(6-(3-(dimethylamino)azetidin-1-yl)pyridin-3-yl)-7-(2-((oxazol-2-yloxy)methyl)pyrrolidin-1-yl)-4-oxo-1,4-dihydroquinoline-3-carboxylic acid], the IC50 is at most 1000 nM.

For the compound `O=C(O)c1cn(C2(c3ccccc3)CC2)c2cc(N3CCC[C@@H]3COc3ncccc3Cl)c(Cl)cc2c1=O` [Example 588, (R)-6-chloro-7-(2-(((3-chloropyridin-2-yl)oxy)methyl)pyrrolidin-1-yl)-4-oxo-1-(1-phenylcyclo-propyl)-1,4-dihydroquinoline-3-carboxylic acid], the IC50 lay in the range of 1000 to 10000 nM.

`Nc1cc(Cn2cc(C(=O)O)c(=O)c3cc(Cl)c(N4CCC[C@@H]4COc4ncccc4Cl)cc32)ccn1` [Example 589, (R)-1-((2-aminopyridin-4-yl)methyl)-6-chloro-7-(2-(((3-chloropyridin-2-yl)oxy)methyl)pyrrolidin-1-yl)-4-oxo-1,4-dihydroquinoline-3-carboxylic acid]: the IC50 was 1000 to 10000 nM.

On to `O=C(O)c1cn(-c2cnccn2)c2cc(N3C[C@H](F)C[C@@H]3COc3ncccc3Cl)c(Cl)cc2c1=O` [Example 590, 6-chloro-7-((2R,4R)-2-(((3-chloropyridin-2-yl)oxy)methyl)-4-fluoropyrrolidin-1-yl)-4-oxo-1-(pyrazin-2-yl)-1,4-dihydroquinoline-3-carboxylic acid], for which the IC50 is at most 1000 nM.

In the case of `CN(C)C1CN(c2ccc(-n3cc(C(=O)O)c(=O)c4cc(Cl)c(N5CCC[C@@H]5CCOc5ccccn5)cc43)cn2)C1` [Example 591, (R)-6-chloro-1-(6-(3-(dimethylamino)azetidin-1-yl)pyridin-3-yl)-4-oxo-7-(2-(2-(pyridin-2-yloxy)ethyl)pyrrolidin-1-yl)-1,4-dihydroquinoline-3-carboxylic acid], the IC50 is at most 1000 nM.

As for `C#Cc1cc2c(=O)c(C(=O)O)cn(-c3ccc(N4CC(N(C)C)C4)nc3)c2cc1N1CCC[C@@H]1COc1ncccc1Cl` [Example 592, (R)-7-(2-(((3-chloropyridin-2-yl)oxy)methyl)pyrrolidin-1-yl)-1-(6-(3-(dimethylamino)azetidin-1-yl)pyridin-3-yl)-6-ethynyl-4-oxo-1,4-dihydroquinoline-3-carboxylic acid], the IC50 was at most 1000 nM.

Turning to `CN(C)C1CN(c2ccc(-n3cc(C(=O)O)c(=O)c4cc(Cl)c(N5CC(c6ccccc6)C[C@@H]5COc5ncccc5Cl)cc43)cn2)C1` (stereo partly drawn) [Example 593, 6-chloro-7-((2R)-2-(((3-chloropyridin-2-yl)oxy)methyl)-4-phenyl-pyrrolidin-1-yl)-1-(6-(3-(dimethylamino)azetidin-1-yl)pyridin-3-yl)-4-oxo-1,4-dihydroquinoline-3-carboxylic acid], the IC50 is at most 1000 nM.

For `CN(C)C1CN(c2ccc(-n3cc(C(=O)O)c(=O)c4cc(Cl)c(N5CCC[C@@H]5COC5CCOC5)cc43)cn2)C1` (stereo partly drawn) [Example 594, 6-chloro-1-(6-(3-(dimethylamino)azetidin-1-yl)pyridin-3-yl)-4-oxo-7-((2R)-2-(((tetrahydro-furan-3-yl)oxy)methyl)pyrrolidin-1-yl)-1,4-dihydroquinoline-3-carboxylic acid], the IC50 was in the range of 1000 to 10000 nM.

In the case of `CN(C)C1CN(c2ccc(-n3cc(C(=O)O)c(=O)c4cc(Cl)c(N5CCC[C@@H]5COC5CCOCC5)cc43)cn2)C1` [Example 595, (R)-6-chloro-1-(6-(3-(dimethylamino)azetidin-1-yl)pyridin-3-yl)-4-oxo-7-(2-(((tetrahydro-2H-pyran-4-yl)oxy)methyl)pyrrolidin-1-yl)-1,4-dihydroquinoline-3-carboxylic acid], the IC50 was in the range of 1000 to 10000 nM.

Consider `CN(C)C1CN(c2ccc(-n3cc(C(=O)O)c(=O)c4cc(Cl)c(N5CCC[C@@H]5CSc5ncccc5Cl)cc43)cn2)C1` [Example 596, (R)-6-chloro-7-(2-(((3-chloropyridin-2-yl)thio)methyl)pyrrolidin-1-yl)-1-(6-(3-(dimethylamino)azetidin-1-yl)pyridin-3-yl)-4-oxo-1,4-dihydroquinoline-3-carboxylic acid], for which the IC50 is at most 1000 nM.
